{"source": "paper PMC8888861", "about": "“Inhibition of the NLRP3 Inflammasome Activation by Manoalide Ameliorates Experimental Autoimmune Encephalomyelitis Pathogenesis” (Frontiers in Cell and Developmental Biology, 2022)", "target": "T1, NLRP3 (Mus musculus, UniProt Q8R4B8)", "T1 construct": "endogenous NLRP3 in lysates of LPS-primed BMDMs", "T1 sequence (Q8R4B8 whole entry)": "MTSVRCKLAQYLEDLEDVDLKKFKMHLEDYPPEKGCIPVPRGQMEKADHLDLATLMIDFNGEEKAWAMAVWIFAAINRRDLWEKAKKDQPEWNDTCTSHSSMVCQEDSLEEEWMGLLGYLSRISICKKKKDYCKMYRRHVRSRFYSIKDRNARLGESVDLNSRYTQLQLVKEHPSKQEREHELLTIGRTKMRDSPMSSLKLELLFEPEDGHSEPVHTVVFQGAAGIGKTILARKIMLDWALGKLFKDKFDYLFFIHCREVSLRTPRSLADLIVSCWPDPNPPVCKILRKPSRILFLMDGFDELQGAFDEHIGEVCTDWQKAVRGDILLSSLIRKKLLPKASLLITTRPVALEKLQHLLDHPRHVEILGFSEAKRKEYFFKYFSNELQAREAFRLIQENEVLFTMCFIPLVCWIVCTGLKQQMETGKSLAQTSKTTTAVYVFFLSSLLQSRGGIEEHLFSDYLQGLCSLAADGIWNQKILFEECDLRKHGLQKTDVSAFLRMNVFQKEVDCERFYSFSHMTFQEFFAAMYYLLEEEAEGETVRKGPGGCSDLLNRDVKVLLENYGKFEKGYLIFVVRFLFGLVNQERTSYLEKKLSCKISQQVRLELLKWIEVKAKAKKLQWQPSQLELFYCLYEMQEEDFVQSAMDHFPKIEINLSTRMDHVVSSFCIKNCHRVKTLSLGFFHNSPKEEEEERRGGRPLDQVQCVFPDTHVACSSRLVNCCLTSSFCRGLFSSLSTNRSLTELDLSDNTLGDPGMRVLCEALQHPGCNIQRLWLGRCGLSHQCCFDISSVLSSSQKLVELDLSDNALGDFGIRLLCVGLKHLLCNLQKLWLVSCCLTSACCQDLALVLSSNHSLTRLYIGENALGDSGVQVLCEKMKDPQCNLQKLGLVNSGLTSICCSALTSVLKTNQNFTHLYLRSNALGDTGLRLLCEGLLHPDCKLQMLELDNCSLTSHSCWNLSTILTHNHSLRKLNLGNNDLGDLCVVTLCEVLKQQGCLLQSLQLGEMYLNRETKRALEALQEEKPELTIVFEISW", "assay": "DARTS (pronase protection) in BMDM lysates at […]", "type": "cell-based"}
{"compound": "CC1=C(CC/C(C)=C/CCC2=CC[C@H](C3=CC(=O)O[C@H]3O)O[C@H]2O)C(C)(C)CCC1", "note": "[manoalide]", "values": [{"measurement": "DARTS (pronase protection) in BMDM lysates at 10 and 50 μM", "value": "Pronase-mediated degradation of NLRP3 is reversed in dose-dependent manner by manoalide."}]}
